SMILES strings stand for the structures.

In this test the test system is chicken roundworm [鶏回虫(^5earidia galli)]. As to the kind of experiment: Anthelmintic test: single oral dose to chickens infected with chicken roundworm; worm expulsion rate over 7 days. Format: in vivo, chicken roundworm (^5earidia galli). The note with it: for worm expulsion rate (mean): single oral dose (gelatin capsule), n = 3, 7 days, untreated control 0%.

Consider `[C-]#[N+]C(=Cc1ccc(O)cc1)C(=Cc1ccc(OC)cc1)[N+]#[C-]` [キサントシリンXモノメチルエーテル, 1(p−ヒドロキシフェニル)−2、3−ジイソシフノー4−(p−メトキシフェニル)−ブタ−1,3−ツエン], for which the “worm expulsion rate (mean)” value is given as 8% (5 mg/kg); 69.7% (10 mg/kg); 100% (20 mg/kg, completely expelled). Also, the anthelmintic effect entry (doses of 10 mg/kg to 20 mg/kg, single oral dose) was “確実な駆虫効果が確認された”. In addition, where the note is “most of the medicated groups, single oral dose 5-20 mg/kg”, the “time after dosing within which most worms were expelled” value is at most 2 days.

The values are drawn from patent JPH0240324A, “キサントシリンxモノメチルエーテルを含有する駆虫剤” (Meiji Seika Kaisha Ltd, priority 1988, dated 1990).
